Calls of active or inactive are those of the source. The rule behind the calls is not given here.
Key:
D(4) dopamine receptor = molecular target: T1, D(4) dopamine receptor (Homo sapiens, UniProt P21917); test: Displacement of [3H]nemonapride from human cloned dopamine D4.2 receptor
T1 sequence (P21917 whole entry): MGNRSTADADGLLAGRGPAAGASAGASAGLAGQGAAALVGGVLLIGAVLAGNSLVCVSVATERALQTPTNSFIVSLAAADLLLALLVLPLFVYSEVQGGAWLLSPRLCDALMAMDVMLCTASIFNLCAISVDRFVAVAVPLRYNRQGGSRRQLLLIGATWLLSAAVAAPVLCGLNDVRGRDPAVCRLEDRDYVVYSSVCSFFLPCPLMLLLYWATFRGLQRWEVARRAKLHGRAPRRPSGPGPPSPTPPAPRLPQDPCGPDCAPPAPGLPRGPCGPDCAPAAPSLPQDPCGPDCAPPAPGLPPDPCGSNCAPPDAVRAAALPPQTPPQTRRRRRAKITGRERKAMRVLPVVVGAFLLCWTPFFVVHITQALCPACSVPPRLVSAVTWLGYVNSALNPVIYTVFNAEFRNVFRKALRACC

[1] = molecular target: D(2) dopamine receptor (Homo sapiens) (UniProt P14416); test: Displacement of [3H]spiperone from human cloned dopamine D2L receptor at 1 uM
[2] = molecular target: 5-hydroxytryptamine receptor 2A (Rattus norvegicus) (UniProt P14842); test: Displacement of [3H]ketanserin from rat 5HT2A receptor at 1 uM
[3] = molecular target: 5-hydroxytryptamine receptor 2A (Rattus norvegicus, UniProt P14842); test: Displacement of [3H]ketanserin from rat 5HT2A receptor
[4] = molecular target: 5-hydroxytryptamine receptor 2A (Homo sapiens) (UniProt P28223); test: Antagonist activity at 5HT2A assessed as inhibition of serotonin-induced effect at 5 uM; format: functional
[5] = molecular target: T2, D(4) dopamine receptor (Homo sapiens) (UniProt P21917); test: Antagonist activity at dopamine D4.2 receptor assessed as inhibition of dopamine-induced effect at 5 uM; format: functional
T2 sequence (whole entry): T1 sequence (P21917 whole entry)

[6] = molecular target: T2, D(4) dopamine receptor (Homo sapiens); test: Displacement of [3H]nemonapride from human cloned dopamine D4.2 receptor at 1 uM

Chain of 5-hydroxytryptamine receptor 2A (Rattus norvegicus) (P14842 whole entry): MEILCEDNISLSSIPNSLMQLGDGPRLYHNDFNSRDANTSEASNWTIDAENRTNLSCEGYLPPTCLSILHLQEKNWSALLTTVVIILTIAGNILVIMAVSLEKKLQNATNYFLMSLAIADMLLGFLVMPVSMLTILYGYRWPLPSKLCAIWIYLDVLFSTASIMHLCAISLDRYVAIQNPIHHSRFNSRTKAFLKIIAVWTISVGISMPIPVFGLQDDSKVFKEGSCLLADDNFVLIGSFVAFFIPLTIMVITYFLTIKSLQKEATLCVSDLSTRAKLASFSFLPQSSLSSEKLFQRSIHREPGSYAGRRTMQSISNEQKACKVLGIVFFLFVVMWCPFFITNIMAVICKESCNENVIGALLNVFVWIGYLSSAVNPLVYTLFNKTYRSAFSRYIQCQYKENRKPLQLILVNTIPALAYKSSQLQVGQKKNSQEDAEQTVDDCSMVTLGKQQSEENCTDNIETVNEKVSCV
Chain of 5-hydroxytryptamine receptor 2A (P14842 whole entry): as above
Chain of 5-hydroxytryptamine receptor 2A (Homo sapiens) (P28223 whole entry): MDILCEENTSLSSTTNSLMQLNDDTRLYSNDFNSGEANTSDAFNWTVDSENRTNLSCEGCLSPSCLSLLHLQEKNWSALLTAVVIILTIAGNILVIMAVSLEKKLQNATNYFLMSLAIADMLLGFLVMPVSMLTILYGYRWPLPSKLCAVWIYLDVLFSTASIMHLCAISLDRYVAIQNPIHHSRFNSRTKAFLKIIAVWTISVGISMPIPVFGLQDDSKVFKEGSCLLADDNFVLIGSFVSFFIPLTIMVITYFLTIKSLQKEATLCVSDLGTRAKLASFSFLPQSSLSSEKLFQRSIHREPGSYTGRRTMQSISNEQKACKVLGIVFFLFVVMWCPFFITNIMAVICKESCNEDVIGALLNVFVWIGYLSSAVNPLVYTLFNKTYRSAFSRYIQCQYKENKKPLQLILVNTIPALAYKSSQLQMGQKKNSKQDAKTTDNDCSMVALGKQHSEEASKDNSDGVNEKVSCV
Chain of D(2) dopamine receptor (Homo sapiens) (P14416 whole entry): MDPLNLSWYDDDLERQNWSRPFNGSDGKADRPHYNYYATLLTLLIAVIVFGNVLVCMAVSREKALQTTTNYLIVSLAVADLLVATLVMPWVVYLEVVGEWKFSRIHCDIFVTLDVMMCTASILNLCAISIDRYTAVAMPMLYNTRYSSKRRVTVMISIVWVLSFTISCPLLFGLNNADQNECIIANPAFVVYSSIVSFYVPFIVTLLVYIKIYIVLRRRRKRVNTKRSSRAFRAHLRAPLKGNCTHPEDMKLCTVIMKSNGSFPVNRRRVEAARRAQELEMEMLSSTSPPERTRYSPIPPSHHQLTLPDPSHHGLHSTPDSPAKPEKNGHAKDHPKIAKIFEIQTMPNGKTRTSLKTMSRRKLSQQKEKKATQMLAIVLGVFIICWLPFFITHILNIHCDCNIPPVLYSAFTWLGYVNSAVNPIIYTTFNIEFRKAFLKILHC

Row | Compound | Ki (D(4) dopamine receptor) [nM] | inhibition [1] [%] | inhibition [2] [%] | Ki [3] [nM] | Activity [4] | Activity [5] | inhibition [6] [%]
1 | O=C(NC1CCN(Cc2ccc(Cl)cc2)CC1)c1cccc2ccccc12 | 43 | 0 | 23 | – | – | Active | –
2 | O=C(NC1CCN(Cc2ccccn2)CC1)c1ccc2ccccc2c1 | 299 | 5 | – | 545 | – | – | –
3 | O=C(NC1CCN(Cc2cccc(Cl)c2)CC1)c1cccc2ccccc12 | 116 | 0 | 49 | – | – | Active | –
4 | O=C(NC1CCN(Cc2ccccc2Cl)CC1)c1cccc2ccccc12 | 329 | – | – | – | – | Active | –
5 | O=C(NC1CCN(Cc2ccncc2)CC1)c1ccc2ccccc2c1 | – | 5 | – | 695 | – | – | 32
6 | O=C(NC1CCN(Cc2ccc([N+](=O)[O-])cc2)CC1)c1ccc2ccccc2c1 | 181 | 0 | – | 278 | Active | Active | –
7 | O=C(NC1CCN(Cc2ccccc2Br)CC1)c1cccc2ccccc12 | – | 8 | – | – | – | – | 35
8 | Cc1cccc(CN2CCC(NC(=O)c3ccc4ccccc4c3)CC2)c1 | 11 | 20 | – | 87 | Active | Active | –
9 | O=C(NC1CCN(Cc2ccccc2)CC1)c1cccc2ccccc12 | – | – | – | – | Active | Active | –
10 | O=C(NC1CCN(Cc2cccc(C(F)(F)F)c2)CC1)c1ccc2ccccc2c1 | 103 | 9 | 15 | – | – | Active | –
11 | O=C(NC1CCN(Cc2ccc(Br)cc2)CC1)c1ccc2ccccc2c1 | 34 | – | – | 223 | Active | Active | –
12 | Cc1cccc(CN2CCC(NC(=O)c3cccc4ccccc34)CC2)c1 | 77 | 11 | 38 | – | – | Active | –
13 | O=C(NC1CCN(Cc2ccc(Cl)cc2)CC1)c1ccc2ccccc2c1 | 37 | 15 | – | 242 | Active | Active | –
14 | O=C(NC1CCN(Cc2cccc(Cl)c2)CC1)c1ccc2ccccc2c1 | 54 | 29 | – | 133 | Active | Active | –
15 | Cc1ccc(CN2CCC(NC(=O)c3cccc4ccccc34)CC2)cc1 | 69 | 13 | 33 | – | – | Active | –
16 | COc1cccc(CN2CCC(NC(=O)c3cccc4ccccc34)CC2)c1 | 168 | 0 | 23 | – | – | Active | –
17 | O=C(NC1CCN(Cc2cccnc2)CC1)c1ccc2ccccc2c1 | 326 | 4 | – | 524 | – | – | –
18 | Cc1ccccc1CN1CCC(NC(=O)c2cccc3ccccc23)CC1 | 155 | 9 | 26 | – | – | Active | –
19 | O=C(NC1CCN(Cc2cccc(C(F)(F)F)c2)CC1)c1cccc2ccccc12 | 119 | 0 | – | – | – | Active | –
20 | COc1ccc(CN2CCC(NC(=O)c3cccc4ccccc34)CC2)cc1 | 223 | 3 | – | – | – | Active | –

Next, values leading:

Row | Ki (D(4) dopamine receptor) [nM] | inhibition [1] [%] | inhibition [2] [%] | Ki [3] [nM] | Activity [4] | Activity [5] | inhibition [6] [%] | Compound
21 | 84 | 0 | 36 | – | – | – | – | O=C(NC1CCN(Cc2ccc(C(F)(F)F)cc2)CC1)c1ccc2ccccc2c1
22 | 66 | – | – | 462 | Active | Active | – | O=C(NC1CCN(Cc2cccc(Br)c2)CC1)c1cccc2ccccc12
23 | – | 0 | – | 133 | Active | – | 48 | O=C(NC1CCN(Cc2ccccc2Cl)CC1)c1ccc2ccccc2c1
24 | 44 | 4 | – | – | – | Active | – | O=C(NC1CCN(Cc2ccc(Br)cc2)CC1)c1cccc2ccccc12
25 | 36 | – | – | 53 | Active | Active | – | O=C(NC1CCN(Cc2cccc(Br)c2)CC1)c1ccc2ccccc2c1
26 | – | 0 | 4 | – | – | – | 0 | O=C(NC1CCN(Cc2c(F)c(F)c(F)c(F)c2F)CC1)c1ccc2ccccc2c1
27 | 16 | 0 | – | 158 | Active | Active | – | COc1cccc(CN2CCC(NC(=O)c3ccc4ccccc4c3)CC2)c1
28 | 26 | 6 | – | 175 | Active | Active | – | Cc1ccccc1CN1CCC(NC(=O)c2ccc3ccccc3c2)CC1
29 | 96 | 0 | 32 | – | – | Active | – | O=C(NC1CCN(Cc2ccc(C(F)(F)F)cc2)CC1)c1cccc2ccccc12
30 | 31 | 18 | – | 151 | Active | Active | – | COc1ccc(CN2CCC(NC(=O)c3ccc4ccccc4c3)CC2)cc1
31 | – | – | – | – | Active | Active | – | O=C(NC1CCN(Cc2ccccc2)CC1)c1ccc2ccccc2c1
32 | – | 0 | 20 | – | – | – | 42 | O=C(NC1CCN(Cc2ccc([N+](=O)[O-])cc2)CC1)c1cccc2ccccc12
33 | – | 0 | – | 228 | – | – | 0 | O=C(NC1CCN(Cc2c(F)c(F)c(F)c(F)c2F)CC1)c1cccc2ccccc12
34 | 21 | 42 | – | 222 | Active | Active | – | Cc1ccc(CN2CCC(NC(=O)c3ccc4ccccc4c3)CC2)cc1
35 | – | 0 | 47 | – | – | – | 31 | O=C(NC1CCN(Cc2ccccc2Br)CC1)c1ccc2ccccc2c1
